According to patent publication US8501911B2, “Methods of reducing inflammation and mucus hypersecretion” (Biomarck Pharmaceuticals, Ltd, priority 1999, dated 2013):
Residues, ends and D or L forms follow the SMILES beside them. *: point of attachment. Myristoyl = CCCCCCCCCCCCCC(=O)*

Assays:
NHBE cells = experiment: PMA+8-Br-cGMP-induced mucin secretion from NHBE cells (ELISA); assay type: cell-based, human; conditions: pre- and co-incubation with 100 nM PMA+1 μM 8-Br-cGMP (Results-M-1A/M-3A)
Procedure: Peptide Blocking Studies—NHBE cells were preincubated with either the MANS or the RNS peptide (1-100 μM) for 15 min, and then PMA (100 nM)+8-Br-cGMP (1 μM) or UTP (100 μM) was added, and cells were incubated for an additional 15 min or 2 h. respectively. Mucin secretion was measured by ELISA and experimental results are designated as Results-I-2B-1 and Results-I-2B-2, as follows. […]
Measurement of Mucin Secretion by ELISA—Before collection of “base line” and “test” mucin samples, the accumulated mucus at the apical surface of the cells was removed by washing with phosphate-buffered saline, pH 7.2. To collect the base-line secretion, cells were incubated with medium alone, and secreted mucin in the apical medium was collected and reserved. Cells were rested for 24 h and then exposed to medium containing the selected stimulatory and/or inhibitory reagents (or appropriate controls), after which secreted mucin was collected and reserved as the test sample. Incubation times for the base line and the test were the same but varied depending on the test reagent utilized. Both base line and test secretions were analyzed by ELISA using an antibody capture method as known in the art. See, e.g., Harlow et al., Antibodies: A Laboratory Manual, pp. 570-573, Cold Spring Harbor Laboratory, Cold Spring Harbor, N.Y. (1988). The primary antibody for this assay was 17Q2 (Babco, Richmond, Calif.), a monoclonal antibody that reacts specifically with a carbohydrate epitope on human airway mucins. The ratio of test/base-line mucin, which is similar to a “secretory index”, was used to quantify mucin secretion, allowing each culture dish to serve as its own control and thus, minimizing deviation caused by variability among culture wells. Wright et al., Am. J. Physiol. 271, L854-L861 (1996). Levels of mucin secretion were reported as percentage of the medium control.
MARCKS-related Peptides—Both the myristoylated N-terminal sequence (MANS) and the random N-terminal sequence (RNS) peptides were synthesized at Genemed Synthesis, Inc. (San Francisco, Calif.), then purified by high pressure liquid chromatography (>95% pure), and confirmed by mass spectroscopy with each showing one single peak with an appropriate molecular mass. The MANS peptide consisted of sequence identical to the first 24 amino acids of MARCKS, i.e. the myristoylated N-terminal region that mediates MARCKS insertion into membranes, MA-[…] (SEQ ID NO: 1) (where MA=N-terminal myristate chain). The corresponding control peptide (RNS) contained the same amino acid composition as the MANS but arranged in random order, MA-[…] (SEQ ID NO: 26). The presence of the hydrophobic myristate moiety in these synthetic peptides enhances their permeability to the plasma membranes, enabling the peptides to be taken up readily by cells. To determine the effects of these peptides on mucin secretion, cells were preincubated with the peptides for 15 min prior to addition of secretagogues, and mucin secretion was then measured by ELISA.
Antisense Oligonucleotides—MARCKS antisense oligonucleotide and its corresponding control oligonucleotide were synthesized at Biognostik GmbH (Gottingen, Germany). NHBE cells were treated with 5 μM antisense or control oligonucleotide apically for 3 days (in the presence of 2 μg/ml lipofectin for the first 24 h). Cells were then incubated with secretagogues, and mucin secretion was measured by ELISA. Total RNA and protein were isolated from treated cells. MARCKS mRNA was assessed by Northern hybridization according to conventional procedures using human MARCKS cDNA as a probe. MARCKS protein level was determined by Western blot using purified anti-MARCKS IgG1 (clone 2F12) as the primary detection antibody.
The effect on mucus secretion of a myristoylated peptide containing the first 24 amino acids of the human MARCKS protein (MANS; myristoylated N-terminal sequence; SEQ ID NO: ) was tested. Cultured normal human bronchial epithelial cells as described above were used. […]

[1] = tested on: human bronchial epithelial cells; experiment: Basal (constitutive) mucin secretion by human bronchial epithelial cells; assay type: cell-based; conditions: one hour incubation
Procedure: Mucus secreted from the airway epithelial cells in vitro after stimulation by activators was assessed using an ELISA (antibody capture method) (E. Harlow, D. Lane. “Antibodies: A Laboratory Manual.” New York: Cold Spring Harbor Laboratory Press, 1988), wherein the collected mucus is bound directly to the ELISA plate. Mucus was detected using an antibody raised against monkey airway mucus (Lin et al. Am J Respir Cell Mol Biol 1:41, 1989).
The MANS peptide (100 μM) was also found to decrease constitutive (basal) mucus secretion by one hour incubation. Cells were treated as described above except that no PMA or 8-Br-cGMP was used. […] Results, designated as Results-M-1B, are presented as follows and show the inhibition of basal mucin secretion by human bronchial epithelial cells exposed to the MANS peptide (SEQ ID NO: 1) or a negative control peptide consisting of the same amino acids as the MANS peptide, but in random order (RNS peptide; random N-terminal sequence (SEQ ID NO: 26):
The effect of MA-PSD peptide (1, 10 and 100 μM) on basal mucin secretion was also measured. Cells as described above were incubated for one hour with the MA-PSD peptide (no PMA or 8-Br-cGMP).

[2] = target: T1, cGMP-dependent protein kinase (PKG) (Homo sapiens, UniProt Q13976); experiment: PKG activity in NHBE cells; assay type: cell-based; conditions: 100 μM
T1 construct: endogenous in cells; host or cells: NHBE cells
T1 sequence (Q13976 1-671): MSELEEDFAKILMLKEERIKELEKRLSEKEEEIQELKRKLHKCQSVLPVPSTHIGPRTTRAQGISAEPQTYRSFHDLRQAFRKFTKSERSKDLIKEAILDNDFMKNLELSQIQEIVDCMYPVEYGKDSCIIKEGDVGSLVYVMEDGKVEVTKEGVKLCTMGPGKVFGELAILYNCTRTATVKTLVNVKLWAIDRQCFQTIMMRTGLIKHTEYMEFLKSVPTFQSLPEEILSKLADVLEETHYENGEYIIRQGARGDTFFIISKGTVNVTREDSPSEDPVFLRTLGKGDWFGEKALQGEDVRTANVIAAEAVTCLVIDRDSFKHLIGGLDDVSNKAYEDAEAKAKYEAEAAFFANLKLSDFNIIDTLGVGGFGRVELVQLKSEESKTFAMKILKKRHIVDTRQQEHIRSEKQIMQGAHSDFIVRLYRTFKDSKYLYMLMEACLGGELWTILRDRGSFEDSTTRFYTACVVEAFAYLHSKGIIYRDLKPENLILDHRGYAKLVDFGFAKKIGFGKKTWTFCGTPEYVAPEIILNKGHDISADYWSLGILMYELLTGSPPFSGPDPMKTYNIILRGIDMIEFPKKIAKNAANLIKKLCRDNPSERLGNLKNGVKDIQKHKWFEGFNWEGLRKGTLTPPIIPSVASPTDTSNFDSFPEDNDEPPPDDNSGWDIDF
Procedure: Phosphorylation of MARCKS by PMA was attenuated by Calphostin C (500 nM). NHBE cells also contained substantial amounts of cGMP-dependent protein kinase type 1α (PKG-1α) activity, which was localized to the cytosolic fraction. […] In addition, the phosphorylation of MARCKS induced by PMA was reversed by incubation with 8-Br-cGMP (10 μM).

Row | PKG activity [2] | SMILES | Mucin secretion level relative to media control (NHBE cells; peptide 1 μM) | Mucin secretion level relative to media control (NHBE cells; peptide 10 μM) | Mucin secretion level relative to media control (NHBE cells; peptide 100 μM) | Basal mucin secretion level relative to control ([1]; peptide 1 μM) | Basal mucin secretion level relative to control ([1]; peptide 10 μM) | Basal mucin secretion level relative to control ([1]; peptide 100 μM, no PMA or 8-Br-cGMP)
1 |  | CCCCCCCCCCCCCC(=O)N[C@@H](CCCCN)C(=O)N[C@@H](CCCCN)C(=O)N[C@@H](CCCCN)C(=O)N[C@@H](CCCCN)C(=O)N[C@@H](CCCCN)C(=O)N[C@@H](CCCNC(=N)N)C(=O)N[C@@H](Cc1ccccc1)C(=O)N[C@@H](CO)C(=O)N[C@@H](Cc1ccccc1)C(=O)N[C@@H](CCCCN)C(=O)N[C@@H](CCCCN)C(=O)N[C@@H](CO)C(=O)N[C@@H](Cc1ccccc1)C(=O)N[C@@H](CCCCN)C(=O)N[C@@H](CC(C)C)C(=O)N[C@@H](CO)C(=O)NCC(=O)N[C@@H](Cc1ccccc1)C(=O)N[C@@H](CO)C(=O)N[C@@H](Cc1ccccc1)C(=O)N[C@@H](CCCCN)C(=O)N[C@@H](CCCCN)C(=O)N[C@@H](CC(N)=O)C(=O)N[C@@H](CCCCN)C(=O)N[C@@H](CCCCN)C(=O)O [MA-PSD peptide] (Myristoyl-KKKKKRFSFKKSFKLSGFSFKKNKK-OH; C-terminus assumed) | 226% | 316% | 191% | 102% | 91% | 285%
2 | increased | CCCC(=O)Nc1nc2c(ncn2[C@@H]2O[C@@H]3COP(=O)(O)O[C@H]3[C@H]2OC(=O)CCC)c(=O)[nH]1 [dibutryl cGMP] |  |  |  |  |  | 
